Counter-ions that a name gives are not always drawn. Like-named read-outs stand apart in the source and are kept apart here.
How the values were obtained:
male CD1 mice = test: acetic acid-induced writhing assay after sc administration; format: in vivo, mouse; settings: for ED50: Mus musculus, 0.5 h, read-out: ED50 (95% CI), mice, sc, inhibition of writhing 30 min after drug administration
MOR [1] = target: T1, MOR (Rattus norvegicus, UniProt P33535); test: competition radioligand binding, rat brain membranes, [3H]DAMGO; settings: for Ki: rat brain membranes, read-out: opioid receptor binding Ki MOR
T1 construct: Membranes were prepared from Sprague-Dawley rat brains or guinea-pig brains according to the described procedures; tissue Labortierkunde und Laborgenetik, Medizinische Universität Wien; host or cells: Sprague-Dawley rat brain without cerebella
T1 sequence (P33535 whole entry): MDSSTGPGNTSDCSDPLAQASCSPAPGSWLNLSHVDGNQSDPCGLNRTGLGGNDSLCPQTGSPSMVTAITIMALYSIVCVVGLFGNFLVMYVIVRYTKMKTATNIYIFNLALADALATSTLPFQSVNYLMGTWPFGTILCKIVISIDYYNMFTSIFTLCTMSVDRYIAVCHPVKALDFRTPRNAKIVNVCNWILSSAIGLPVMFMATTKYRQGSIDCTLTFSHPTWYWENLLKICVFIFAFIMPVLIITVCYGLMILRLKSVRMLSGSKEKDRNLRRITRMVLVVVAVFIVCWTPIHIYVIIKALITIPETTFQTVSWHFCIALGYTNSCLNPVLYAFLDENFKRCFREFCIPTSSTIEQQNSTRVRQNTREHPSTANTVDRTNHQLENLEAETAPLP

DOR = target: T2, DOR (Homo sapiens, UniProt P41143); test: [35S]GTPγS binding assay, CHO-hDOR membranes; format: biochemical; settings: for EC50: [35S]GTPγS, CHO human DOR membranes; for Emax: relative to reference full agonist DPDPE, read-out: DOR % stim.
T2 construct: host or cells: CHO (CHO-hDOR)
T2 sequence (P41143 whole entry): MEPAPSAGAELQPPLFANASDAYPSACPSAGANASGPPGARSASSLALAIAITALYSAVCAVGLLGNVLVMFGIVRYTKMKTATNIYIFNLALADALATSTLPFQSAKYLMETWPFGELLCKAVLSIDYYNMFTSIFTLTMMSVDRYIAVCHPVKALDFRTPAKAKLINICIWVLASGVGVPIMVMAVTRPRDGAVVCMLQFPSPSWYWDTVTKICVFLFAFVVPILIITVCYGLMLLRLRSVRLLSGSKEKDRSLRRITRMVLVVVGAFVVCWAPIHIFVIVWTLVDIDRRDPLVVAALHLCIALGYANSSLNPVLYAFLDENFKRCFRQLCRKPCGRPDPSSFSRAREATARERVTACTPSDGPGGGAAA

MOR [2] = target: T3, MOR (Homo sapiens, UniProt P35372); test: competition radioligand binding, CHO cell membranes expressing human MOR, [3H]DAMGO
T3 construct: host or cells: CHO (CHO-hMOR)
T3 sequence (P35372 whole entry): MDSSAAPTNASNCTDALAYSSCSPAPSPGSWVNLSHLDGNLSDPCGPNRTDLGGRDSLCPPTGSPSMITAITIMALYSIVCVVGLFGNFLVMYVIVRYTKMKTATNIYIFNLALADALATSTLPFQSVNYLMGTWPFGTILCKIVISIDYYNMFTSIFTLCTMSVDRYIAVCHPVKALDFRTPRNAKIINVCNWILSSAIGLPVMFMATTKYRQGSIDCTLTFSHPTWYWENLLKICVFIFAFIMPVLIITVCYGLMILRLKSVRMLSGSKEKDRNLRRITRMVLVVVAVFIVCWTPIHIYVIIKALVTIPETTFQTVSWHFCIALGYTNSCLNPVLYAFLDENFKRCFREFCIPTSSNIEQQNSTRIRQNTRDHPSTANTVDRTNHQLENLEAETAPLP
Protocol: Membranes from CHO cells expressing human opioid receptors were prepared in 50 mM Tris-HCl buffer (pH 7.7) according to a previously described procedure.[64] Cells expressing human opioid receptors grown at confluence were removed from the culture plates by scraping, homogenized in 50 mM Tris buffer (pH 7.7), using a Polytron homogenizer, then centrifuged once and washed by an additional centrifugation at 27 000g for 15 min, at 4 °C. The final pellet was resuspended in Tris buffer and stored at −80 °C until use. Protein content of brain and cell membrane preparation homogenates was determined by the method of Bradford using bovine serum albumin as the standard.[65]
Rat brain membranes were incubated with either [^3H]DAMGO (1 nM, 45 min, 35 °C) or [^3H][Ile^5,6]deltorphin II (0.5 nM, 45 min, 35 °C) for labeling MOR or DOR receptors, respectively. Guinea-pig brain membranes were incubated with [^3H]U69,593 (1 nM, 30 min, 30 °C) for labeling KOR. Binding assays with CHO cell membranes were conducted at 25 °C for 60 min using [^3H]DAMGO (1 nM) or [^3H]diprenorphine (0.2 nM) for labeling MOR or DOR, respectively. Nonspecific binding was determined using 10 μM naloxone (rodent brain) or 1–10 μM of the unlabeled counterpart of each radioligand (CHO cells). Reactions were terminated by rapid filtration through Whatman glass fiber GF/C filters. Filters were washed three times with 5 mL of ice-cold 50 mM Tris-HCl buffer (pH 7.4) using a Brandel M24R cell harvester (Gaithersburg, MD). Radioactivity retained on the filters was counted by liquid scintillation counting using a Beckman Coulter LS6500 (Beckman Coulter Inc., Fullerton, CA). All binding experiments were performed in duplicate and repeated at least three times.
aDetermined in competition radioligand binding assays using CHO cell membranes expressing
human MOR and DOR. Values represent the mean ± SEM of three independent experiments each

KOR = target: T4, KOR (Homo sapiens, UniProt P41145); test: [35S]GTPγS binding assay, CHO-hKOR membranes; format: biochemical; settings: for EC50: [35S]GTPγS, CHO human KOR membranes, read-out: KOR EC50; for Emax: relative to reference full agonist U69,593, read-out: KOR % stim.
T4 construct: host or cells: CHO (CHO-hKOR)
T4 sequence (P41145 whole entry): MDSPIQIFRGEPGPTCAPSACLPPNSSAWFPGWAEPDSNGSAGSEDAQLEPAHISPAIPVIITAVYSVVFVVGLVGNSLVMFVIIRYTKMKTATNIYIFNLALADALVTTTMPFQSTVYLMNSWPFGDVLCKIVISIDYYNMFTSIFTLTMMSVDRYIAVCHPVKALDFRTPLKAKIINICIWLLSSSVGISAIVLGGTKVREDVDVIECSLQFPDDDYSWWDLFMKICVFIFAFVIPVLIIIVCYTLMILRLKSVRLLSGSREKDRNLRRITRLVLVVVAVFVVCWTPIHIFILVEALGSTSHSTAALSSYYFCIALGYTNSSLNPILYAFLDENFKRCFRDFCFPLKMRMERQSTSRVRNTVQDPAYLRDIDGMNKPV

Q: How did the ED50 (male CD1 mice) turn out when `CO[C@@]12CC[C@H](N[C@H](C(=O)N[C@@H](Cc3ccc(O)cc3)C(=O)O)C(C)C)[C@@H]3Oc4c(O)ccc5c4[C@@]31CCN(C)[C@@H]2C5` [Compound 22a, (2S)-2-[[(4,5α-Epoxy-3-hydroxy-14β-methoxy-17-methylmorphinan-6α-yl)amino]-(2S)-3-methylbutyrylamino]-3-(4-hydroxyphenyl)propionic Acid] was run?
A: Its ED50 is 0.178 mg/kg.

Q: And the “higher antinociceptive potency than morphine” value (male CD1 mice; writhing assay, mice)?
A: The value was 2.5 times.

Q: And the Ki (MOR [1])?
A: Its Ki is 0.82 ± 0.13 nM.

Q: And the “increase in MOR binding affinity vs comparator” value (MOR [1]; rat brain, 17b vs 4b, 16a/b vs 7a/b, 22a/b vs 7a, 7b and 9b, 14a vs 14b)?
A: The value was 4 to 7 times.

Q: What about the EC50 (DOR) of the same compound?
A: Its EC50 is 1.16 ± 0.6 nM.

Q: And the “functional profile at DOR (full/partial agonist)” value (DOR; full agonist ≥85% of the response to DPDPE)?
A: The value was “full agonists”.

Q: And the Emax (DOR)?
A: The Emax was 88 ± 5%.

Q: What about the Ki (MOR [2]; CHO cell membranes expressing human MOR, read-out: Ki MOR) of the same compound?
A: Its Ki is 1.29 ± 0.13 nM.

Q: What about the EC50 (KOR) of the same compound?
A: Its EC50 is 330 ± 179 nM.

Q: What about the Emax (KOR) of the same compound?
A: The Emax was 50 ± 2%.

Q: For `CC[C@H](N[C@H]1CC[C@@]2(OC)[C@H]3Cc4ccc(O)c5c4[C@@]2(CCN3C)[C@H]1O5)C(=O)O` [Compound 19a, (2S)-2-[(4,5α-Epoxy-3-hydroxy-14β-methoxy-17-methylmorphinan-6α-yl)amino]-2-ethylacetic Acid Dihydrochloride], which ED50 (male CD1 mice) is on record?
A: The ED50 was less than 0.02 mg/kg.

Q: And the “ED50 (95% CI)” value (male CD1 mice; mice, inhibition of writhing 30 min after drug administration)?
A: The value was 17.5 (5.13–59.6) μg/kg.

Q: And the “Ki ratio MOR/DOR/KOR” value (MOR [1]; from Ki in rat (MOR, DOR) and guinea-pig (KOR) brain membranes)?
A: The value was 1/49/189.

Q: And the DOR/MOR selectivity ratio (MOR [1]; from Ki in rat brain, for 1 from Ki of ref 44)?
A: The DOR/MOR selectivity ratio was 49.

Q: What about the Ki (MOR [1]) of the same compound?
A: Its Ki is 0.76 ± 0.19 nM.

Q: What about the EC50 (DOR) of the same compound?
A: Its EC50 is 98.2 ± 5.1 nM.

Q: And the Emax (DOR)?
A: Its Emax is 104 ± 9%.

Q: What about the Ki (MOR [2]) of the same compound?
A: The Ki was 0.95 ± 0.13 nM.

Q: What about the EC50 (KOR) of the same compound?
A: The EC50 was 942 ± 235 nM.

Q: And the Emax (KOR)?
A: Its Emax is 61 ± 2%.
